Assay results from PMC2749869, “Reversal of oncogene transformation and suppression of tumor growth by the novel IGF1R kinase inhibitor A-928605” (BMC Cancer, 2009).
Entries after “also recorded” stand apart in the source; their conditions may differ.

Legend:
HCC-827 flank tumors = assay: HCC-827 NSCLC xenograft flank model
Method: All animal studies were conducted in accordance with the guidelines established by the internal Institutional Animal Care and Use Committees. For CD8 IGF1R flank tumors, 5.0 × 10^5 cells/mouse were mixed with an equal volume of Matrigel (BD Biosciences) and injected subcutaneously into the flank of 6- to 8-week-old female nu/nu mice (22 g; Charles River Laboratories). The tumors were allowed to grow approximately 225 mm^3, and mice were reassigned into treatment groups (N = 10) based on tumor volume. At the initiation of treatment, the mean tumor volume ± SEM of the groups was approximately 231 ± 10 mm^3. For MiaPaCa-2 flank tumors, 1.0 × 10^6 cells/mouse were mixed with an equal volume of Matrigel and injected subcutaneously into the flank of 6- to 8-week-old female SCID mice (20 g; Charles River Laboratories). The tumors were allowed to grow approximately 225 mm^3, and mice were reassigned into treatment groups (N = 10) based on tumor volume. At the initiation of treatment, the mean tumor volume ± SEM of the groups was approximately 210 ± 30 mm^3. […] The tumors were allowed to grow approximately 225 mm^3, and mice were reassigned into treatment groups (N = 10) based on tumor volume. At the initiation of treatment, the mean tumor volume ± SEM of the groups was approximately 300 ± 20 mm^3. In all flank models, tumor growth was periodically analyzed by measurement with digital calipers and tumor volume was estimated from the formula (L × W ^2)/2. For all flank models, the effect of treatment on tumor growth rate was assessed by determining %T/C [(mean tumor volume of treated group on day X ÷ mean tumor volume of control group on day X) × 100].
Erlotinib was dosed orally at 3.1 mg/kg, b.i.d. for 16 days.

CD8-IGF1R = molecular target: T1, CD8-IGF1R (Homo sapiens, UniProt P01732+P08069); assay: Western blot of IGF1R pathway phosphorylation and Cyclin D1 in NIH-3T3 CD8-IGF1R cells; format: cell-based, mouse; design: phosphorylation of the IGF1R cytotail, AKT and ERK1/2 / Cyclin D1 expression: dose or concentration left out as unconfirmed
T1 construct: cytoplasmic domain of human IGF1R (amino acids 959-1368); expressed in transfected cells
Method: NIH-3T3, SK-N-FI, MiaPaCa-2 and HCC827 cell lines were obtained from the American Type Culture Collection (ATCC, Manassas, VA). Cell lines were cultured and expanded in media according to ATCC guidelines. CD8-IGF1R was generated by an in-frame fusion of the extracellular and transmembrane domains of the human CD8α coding sequence (amino acids 1-207) followed by a BamHI restriction site to the cytoplasmic domain of human IGF1R (amino acids 959-1368). This product was cloned into the pIRESpuro3 vector (Clontech, Mountain View, CA) via AflII/NotI adaptors. NIH-3T3 CD8-IGF1R and vector control lines were generated by transfection of these constructs with FuGENE 6 (Roche Diagnostics, Basel, Switzerland) followed by selection with 2 μg/ml puromycin. Cells were dilution cloned and surviving colonies were screened for expression of the transgene. Cell clones positive for CD8-IGF1R expression and vector alone transfectants were pooled and remained under puromycin selection for the duration of the study.
Antibodies used included rabbit anti-ERK1/2 pTpY185/187 (Biosource, Camarillo, CA), rabbit anti-IGF-1Rβ and rabbit anti-Cyclin D1 (Santa Cruz Biotechnology, Inc., Santa Cruz, CA), rabbit anti-phospho-IGF-1Rβ (Tyr1135/1136)/IR (Tyr1150/1151), rabbit antiphospho-AKT (S473), rabbit anti-AKT, rabbit anti-ERK1/2, (Cell Signaling Technology, Inc., Beverly, MA) and mouse anti-ACTIN (Sigma, St. Louis, MO). All cell lysate samples were lysed directly in 2× LDS NuPAGE sample buffer with reducing reagent (Invitrogen, Carlsbad, CA) and were analyzed for levels of phosphorylated and total signaling proteins by Western blotting using the NuPAGE electrophoresis and transfer systems (Invitrogen, Carlsbad, CA) and near infrared detection.
All cells were grown in normal growth media containing 10% FBS. B, Cells were treated for 1 hour with A-928605 in a dose response analysis as shown. The CD8-IGF1R fusion protein runs as a doublet. […]

[1] = molecular target: T2, epidermal growth factor receptor (EGFR) (Homo sapiens, UniProt P00533); assay: Cellular EGFR phosphorylation in A-431 and HCC827 cells; format: cell-based; conditions: A-431 cells; read-out: IC50 for inhibition of cellular EGFR phosphorylation
T2 construct: endogenous in cells; host or cells: A-431 and HCC827 cells

[2] = molecular target: T3, epidermal growth factor receptor (EGFR) (Homo sapiens, UniProt P00533, DEL746-750); assay: as above; format: cell-based; conditions: HCC827 cells; read-out: IC50 for inhibition of cellular EGFR phosphorylation
T3 construct: endogenous in cells; host or cells: A-431 and HCC827 cells

NIH-3T3 CD8-IGF1R cells [3] = assay: Soft agar anchorage-independent growth assay; format: cell-based; conditions: 1 μM, three weeks
Method: (§1) Cells grown in soft agar were plated at 5,000 cells/well in 12-well tissue culture plates in a top layer of 0.3% noble agar on a 0.7% bottom layer. Media containing the final desired concentration of small molecule inhibitor was used as the agar overlay. For proliferation assays, 5,000 cells per well were plated in 96-well tissue culture treated plates and allowed to attach overnight. The following day small molecule inhibitors or DMSO control were added in duplicate at the indicated concentrations and cells were placed in tissue culture incubators for 72 hours. Cell viability was determined by an MTS assay (CellTiter Aqueous One, Promega, Madison, WI).
Supplementary file 1471-2407-9-314-S2.jpeg: Additional File 2 Supplementary Figure S2. […] Cells were plated in soft agar with an overlay containing DMSO control (left) or a final concentration of 1 μM A-928605 (right). Cells were allowed to grow in a tissue culture incubator for three weeks before imaging. The 3T3 vector control line was not capable of anchorage-independent growth in soft agar (data not shown). Click here for file

[4] = test system: NIH-3T3 vector control cells; assay: Three day proliferation assay (MTS), NIH-3T3 vector control cells; format: cell-based; conditions: 72 hours
Method: as §1
(§2) All cells were grown in normal growth media containing 10% FBS. B, Cells were treated for 1 hour with A-928605 in a dose response analysis as shown. The CD8-IGF1R fusion protein runs as a doublet. C and D, Three day proliferation assay in the NIH-3T3 vector control cells (C) or CD8-IGF1R cells (D) with increasing amounts of six clinical small molecule inhibitors and A-928605. Compounds were run in duplicate at each indicated concentration. Results are representative of 5 separate assays. Intended targets of each small molecule inhibitor are as follows: lapatinib, ERBB2 and EGFR; gefitinib, EGFR; dasatinib, ABL and SRC; Sorafinib, multi-targeted; imatinib, ABL and KIT; erlotinib, EGFR.

NIH-3T3 CD8-IGF1R cells [5] = assay: Morphology of CD8-IGF1R cells (phase contrast imaging); format: cell-based; conditions: increasing concentrations, imaging two days after addition
Method: Supplementary file 1471-2407-9-314-S1.jpeg: Additional File 1 Supplementary Figure S1. Transformed morphology of the CD8-IGF1R cells. A, Phase contrast images of the NIH-3T3 vector control cells versus the NIH-3T3 CD8-IGF1R cells. B, Morphological dose response of the CD8-IGF1R line to A-928605 treatment. Cells were plated and allowed to adhere and proliferate overnight. The next day compound was added and imaging was performed two days later. The cellular morphology appears to revert back towards a naive 3T3 fibroblast at concentrations near or […] the IC50 of A-928605. All images were captured with a 20× objective. Click here for file

IR = IR (Homo sapiens, UniProt P06213); assay: In vitro kinase panel (kinome profile), IR; format: biochemical
Method: (§3) Figure 1 Chemical structure and activity of A-928605. A, The chemical name of A-928605 is 3-(2-(2-chlorobenzyl)-1 H-benzo [d]imidazol-5-yl)-1-((1 r, 4 r)-4-morpholinocyclohexyl)-1 H-pyrazolo [3,4-d]pyrimidin-4-amine. B, Kinome profile analysis of A-928605 on 156 unique kinases. Heat map colors correspond to the relative Ki against each kinase, where Ki greater than 1,000 nM are colored green, near 100 nM are yellow and Ki of roughly 10 nM are shaded red.

SK-N-FI cells = assay: SK-N-FI proliferation in vitro; format: cell-based, human; conditions: SK-N-FI cell line
Method: as §1

MiaPaCa-2 flank tumors = assay: MiaPaCa-2 pancreatic xenograft flank model; format: in vivo, mice; conditions: A-928605 37.5 mg/kg i.p. b.i.d. 20 days; cetuximab 30 mg/kg i.p. 3×/week, 6 doses
Method: All animal studies were conducted in accordance with the guidelines established by the internal Institutional Animal Care and Use Committees. For CD8 IGF1R flank tumors, 5.0 × 10^5 cells/mouse were mixed with an equal volume of Matrigel (BD Biosciences) and injected subcutaneously into the flank of 6- to 8-week-old female nu/nu mice (22 g; Charles River Laboratories). The tumors were allowed to grow approximately 225 mm^3, and mice were reassigned into treatment groups (N = 10) based on tumor volume. At the initiation of treatment, the mean tumor volume ± SEM of the groups was approximately 231 ± 10 mm^3. For MiaPaCa-2 flank tumors, 1.0 × 10^6 cells/mouse were mixed with an equal volume of Matrigel and injected subcutaneously into the flank of 6- to 8-week-old female SCID mice (20 g; Charles River Laboratories). The tumors were allowed to grow approximately 225 mm^3, and mice were reassigned into treatment groups (N = 10) based on tumor volume. […] In all flank models, tumor growth was periodically analyzed by measurement with digital calipers and tumor volume was estimated from the formula (L × W ^2)/2. For all flank models, the effect of treatment on tumor growth rate was assessed by determining %T/C [(mean tumor volume of treated group on day X ÷ mean tumor volume of control group on day X) × 100]. […]

[6] = test system: SK-N-FI renal subcapsule tumors; assay: SK-N-FI neuroblastoma renal subcapsule xenograft model; format: in vivo, mice; conditions: 37.5 mg/kg i.p. b.i.d. for 14 days, end of dosing (day 28)
Method: For SK-N-FI renal subcapsule tumors, mice were anesthetized with intramuscular injections of ketamine (40 mg/kg) and rompum (5 mg/kg) before surgery. […] The peritoneal cavity was closed with 4-0 suture and skin incision was closed with clip. Fourteen days after tumor cell injection, tumor growth was assessed in cohort mice by necropsy (see Figure 1B) and study mice were reassigned at that time to treatment groups (N = 10) based on injection order. At the end of the dosing period, tumor weight was determined by comparing the weight of the tumor bearing kidney to that of the contralateral kidney.
Figure 5 Efficacy of A-928605 in the SK-N-FI neuroblastoma xenograft as a renal subcapsule model. A, A-928605 inhibits proliferation of SK-N-FI cells in vitro. […] B, Representative photograph taken of the tumor bearing and contralateral kidneys prior to the initiation of dosing on day 14 post tumor cell injection, indicating a tumor weight of 0.07 g. C, Representative photograph taken of the tumor bearing and contralateral kidneys at the end of the dosing schedule (day 28).

IGF1R = IGF1R (Homo sapiens, UniProt P08069); assay: In vitro kinase panel (kinome profile), IGF1R; format: biochemical
Method: as §3

CD8 IGF1R flank tumors = assay: CD8-IGF1R xenograft flank model; format: in vivo, mice; conditions: 50 mg/kg i.p. b.i.d. for 10 days, end of dosing (day 26)
Text: Figure 4 A-928605 abrogates modifications of IGF pathway signaling proteins in vitro and is efficacious in the CD8-IGF1R xenograft flank model in vivo. […] Cyclin D1 is a transcriptional target of the IGF signaling pathway and is therefore not affected by this one hour treatment.

IGF1R and IR = assay: IGF1R versus IR in vitro enzyme activity and cellular phosphorylation; conditions: in vitro enzyme activity and cellular phosphorylation (data not shown)
NIH-3T3 CD8-IGF1R cells [7] = assay: DNA microarray analysis, CD8-IGF1R cells; format: cell-based; conditions: 1 μM, 24 hours
Method: Cells were treated with 1 μM of compound or DMSO control ([…] final concentration) and grown under normal conditions for 24 hours. Cells were then directly lysed in QIAzol RNA lysis reagent (Qiagen, Valencia, CA). Samples were homogenized using an Ultra Turrax T 25 homogenizer (IKA, Wilmington, SC) and then processed with the RNeasy 96 Universal Tissue 8000 kit (Qiagen, Valencia, CA) using a BioRobot 3000 liquid handler (Qiagen, Valencia, CA) and a Sigma 4K15C centrifuge (Sigma, Osterode am Harz, Germany) according to the Qiagen-prescribed protocol. […] GeneChip Operating Software (v1.4.036) was used to quantify perfect match and mismatch features on the scanned microarray images. After quantification, quality control was assured using the Affymetrix Power Tools Quality Reporter (v1.0.04) quality control metrics.
Data normalization and analysis were performed using Resolver 7.0 software (Rosetta Inpharmatics, Seattle, WA). Ratios were built for the average of each treatment versus the group average and a p-value was calculated for every-fold change using the Resolver Affymetrix error model. […]

NIH-3T3 CD8-IGF1R cells [8] = assay: Three day proliferation assay (MTS), NIH-3T3 CD8-IGF1R cells; format: cell-based
Method: as §1, §2

T1 sequence (P01732+P08069 fused): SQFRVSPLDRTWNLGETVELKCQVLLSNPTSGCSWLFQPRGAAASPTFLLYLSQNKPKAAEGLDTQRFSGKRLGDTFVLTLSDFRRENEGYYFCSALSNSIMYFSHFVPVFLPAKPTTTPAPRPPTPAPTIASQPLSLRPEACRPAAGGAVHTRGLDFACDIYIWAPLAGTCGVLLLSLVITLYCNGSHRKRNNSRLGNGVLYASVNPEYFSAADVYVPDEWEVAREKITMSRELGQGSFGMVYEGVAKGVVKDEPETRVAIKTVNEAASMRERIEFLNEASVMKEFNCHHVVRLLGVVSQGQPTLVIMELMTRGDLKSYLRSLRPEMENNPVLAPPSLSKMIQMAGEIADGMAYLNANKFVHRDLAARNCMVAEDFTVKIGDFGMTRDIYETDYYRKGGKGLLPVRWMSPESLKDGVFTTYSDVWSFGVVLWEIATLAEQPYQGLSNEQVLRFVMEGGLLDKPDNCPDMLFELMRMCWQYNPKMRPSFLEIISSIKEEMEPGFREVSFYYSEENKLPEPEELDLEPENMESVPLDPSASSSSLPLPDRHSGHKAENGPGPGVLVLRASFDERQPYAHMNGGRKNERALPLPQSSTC
Sequence of IGF1R (P08069 31-1367, species assumed): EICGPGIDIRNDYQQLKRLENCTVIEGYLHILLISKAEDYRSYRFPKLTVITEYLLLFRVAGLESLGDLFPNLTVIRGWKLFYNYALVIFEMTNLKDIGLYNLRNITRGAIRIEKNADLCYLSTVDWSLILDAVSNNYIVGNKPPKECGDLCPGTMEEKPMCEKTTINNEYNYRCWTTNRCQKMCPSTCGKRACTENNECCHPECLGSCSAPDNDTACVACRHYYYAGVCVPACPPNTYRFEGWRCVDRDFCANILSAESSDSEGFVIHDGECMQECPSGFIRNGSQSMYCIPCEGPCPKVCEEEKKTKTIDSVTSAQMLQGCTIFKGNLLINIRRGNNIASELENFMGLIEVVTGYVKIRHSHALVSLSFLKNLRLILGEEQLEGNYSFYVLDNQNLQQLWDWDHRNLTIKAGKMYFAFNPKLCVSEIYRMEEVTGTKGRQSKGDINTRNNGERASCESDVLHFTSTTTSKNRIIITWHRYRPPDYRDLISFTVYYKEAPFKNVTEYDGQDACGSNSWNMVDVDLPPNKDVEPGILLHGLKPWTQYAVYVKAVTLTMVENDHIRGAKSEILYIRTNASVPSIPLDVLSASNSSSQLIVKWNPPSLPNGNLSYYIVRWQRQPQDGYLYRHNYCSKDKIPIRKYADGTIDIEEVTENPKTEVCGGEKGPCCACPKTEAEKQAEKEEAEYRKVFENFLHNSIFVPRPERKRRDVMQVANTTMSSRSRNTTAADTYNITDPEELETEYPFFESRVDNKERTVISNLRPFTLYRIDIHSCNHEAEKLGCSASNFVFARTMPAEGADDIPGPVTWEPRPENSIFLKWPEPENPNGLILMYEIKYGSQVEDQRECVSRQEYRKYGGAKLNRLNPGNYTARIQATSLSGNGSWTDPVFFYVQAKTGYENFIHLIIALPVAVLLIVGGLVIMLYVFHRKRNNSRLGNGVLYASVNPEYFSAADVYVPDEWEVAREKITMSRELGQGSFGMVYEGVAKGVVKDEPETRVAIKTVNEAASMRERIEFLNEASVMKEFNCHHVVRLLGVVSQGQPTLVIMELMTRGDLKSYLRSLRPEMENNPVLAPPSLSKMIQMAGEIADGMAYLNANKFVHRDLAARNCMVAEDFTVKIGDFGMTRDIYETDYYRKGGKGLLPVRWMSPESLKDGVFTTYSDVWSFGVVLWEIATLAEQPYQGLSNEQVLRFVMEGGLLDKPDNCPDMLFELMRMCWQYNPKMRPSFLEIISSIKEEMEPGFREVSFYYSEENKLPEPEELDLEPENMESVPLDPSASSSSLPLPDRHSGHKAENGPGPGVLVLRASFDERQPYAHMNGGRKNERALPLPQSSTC
T2 sequence (P00533 25-1210): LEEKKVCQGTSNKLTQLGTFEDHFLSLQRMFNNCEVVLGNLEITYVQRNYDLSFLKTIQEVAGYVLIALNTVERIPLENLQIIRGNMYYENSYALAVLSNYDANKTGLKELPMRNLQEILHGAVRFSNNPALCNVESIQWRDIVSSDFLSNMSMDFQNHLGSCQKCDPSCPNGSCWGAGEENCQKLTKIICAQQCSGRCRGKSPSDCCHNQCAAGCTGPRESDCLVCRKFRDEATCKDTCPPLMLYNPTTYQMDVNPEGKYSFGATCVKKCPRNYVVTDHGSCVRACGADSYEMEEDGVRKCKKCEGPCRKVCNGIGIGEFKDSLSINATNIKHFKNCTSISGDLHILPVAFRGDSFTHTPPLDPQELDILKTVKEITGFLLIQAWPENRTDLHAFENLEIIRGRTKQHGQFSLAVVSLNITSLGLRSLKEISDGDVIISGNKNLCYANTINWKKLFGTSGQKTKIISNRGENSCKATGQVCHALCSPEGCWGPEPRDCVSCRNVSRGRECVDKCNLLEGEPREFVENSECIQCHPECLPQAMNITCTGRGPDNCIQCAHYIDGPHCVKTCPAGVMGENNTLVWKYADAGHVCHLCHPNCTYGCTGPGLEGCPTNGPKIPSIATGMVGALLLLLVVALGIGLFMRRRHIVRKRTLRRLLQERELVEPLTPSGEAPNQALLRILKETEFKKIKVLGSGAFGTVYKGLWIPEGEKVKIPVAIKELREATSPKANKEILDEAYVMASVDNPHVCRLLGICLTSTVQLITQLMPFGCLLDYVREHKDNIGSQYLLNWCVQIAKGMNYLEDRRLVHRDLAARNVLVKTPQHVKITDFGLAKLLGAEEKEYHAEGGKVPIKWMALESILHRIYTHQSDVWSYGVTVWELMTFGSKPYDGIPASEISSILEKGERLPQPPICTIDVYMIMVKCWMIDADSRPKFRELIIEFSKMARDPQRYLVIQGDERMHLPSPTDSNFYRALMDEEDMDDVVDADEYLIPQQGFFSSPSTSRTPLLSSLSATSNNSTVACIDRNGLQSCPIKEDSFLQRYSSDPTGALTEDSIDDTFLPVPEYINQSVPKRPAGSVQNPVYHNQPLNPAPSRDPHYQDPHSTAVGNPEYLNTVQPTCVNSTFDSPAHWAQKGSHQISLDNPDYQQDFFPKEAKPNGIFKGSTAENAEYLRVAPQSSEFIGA
T3 sequence (P00533 with tags, fused parts or gaps DEL746-750): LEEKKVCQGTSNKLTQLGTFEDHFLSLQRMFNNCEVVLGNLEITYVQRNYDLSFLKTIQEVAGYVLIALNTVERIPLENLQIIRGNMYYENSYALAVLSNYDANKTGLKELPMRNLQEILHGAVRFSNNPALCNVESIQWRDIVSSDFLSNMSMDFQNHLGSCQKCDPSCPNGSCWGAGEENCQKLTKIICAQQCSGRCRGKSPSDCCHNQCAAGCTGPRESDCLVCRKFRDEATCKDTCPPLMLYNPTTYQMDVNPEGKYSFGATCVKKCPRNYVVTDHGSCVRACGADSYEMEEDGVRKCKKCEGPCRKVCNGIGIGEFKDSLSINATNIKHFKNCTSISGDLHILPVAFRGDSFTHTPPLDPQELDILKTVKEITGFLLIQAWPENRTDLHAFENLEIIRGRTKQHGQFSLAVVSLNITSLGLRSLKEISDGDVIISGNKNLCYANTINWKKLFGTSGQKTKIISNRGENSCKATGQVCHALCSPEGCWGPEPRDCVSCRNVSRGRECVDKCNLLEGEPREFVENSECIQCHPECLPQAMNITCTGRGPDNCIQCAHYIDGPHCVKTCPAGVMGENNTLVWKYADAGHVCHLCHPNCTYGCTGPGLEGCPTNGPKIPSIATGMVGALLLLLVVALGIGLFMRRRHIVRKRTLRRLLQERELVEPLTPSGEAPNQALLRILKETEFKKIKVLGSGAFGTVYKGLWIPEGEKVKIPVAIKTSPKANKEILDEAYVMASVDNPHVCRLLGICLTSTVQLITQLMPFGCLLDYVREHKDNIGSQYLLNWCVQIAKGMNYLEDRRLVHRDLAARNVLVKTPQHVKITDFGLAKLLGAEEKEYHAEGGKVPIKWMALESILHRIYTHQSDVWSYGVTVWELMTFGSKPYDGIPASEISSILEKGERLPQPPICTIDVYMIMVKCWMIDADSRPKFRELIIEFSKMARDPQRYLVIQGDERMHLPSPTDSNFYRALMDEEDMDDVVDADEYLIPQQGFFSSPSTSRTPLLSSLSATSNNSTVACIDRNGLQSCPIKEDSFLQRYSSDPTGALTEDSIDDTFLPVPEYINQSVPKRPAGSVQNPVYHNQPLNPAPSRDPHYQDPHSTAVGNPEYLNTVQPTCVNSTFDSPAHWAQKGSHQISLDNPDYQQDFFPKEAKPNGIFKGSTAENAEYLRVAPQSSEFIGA

Nc1ncnc2c1c(-c1ccc3[nH]c(Cc4ccccc4Cl)nc3c1)nn2[C@H]1CC[C@H](N2CCOCC2)CC1 [A-928605, 3-(2-(2-chlorobenzyl)-1 H-benzo [d]imidazol-5-yl)-1-((1 r, 4 r)-4-morpholinocyclohexyl)-1 H-pyrazolo [3,4-d]pyrimidin-4-amine]
tumor response in words (HCC-827 flank tumors; size-matched HCC827 xenografts, 16 days dosing): not consistently statistically different from its vehicle control; also recorded: partial responses
Cyclin D1 expression (CD8-IGF1R; 24-hours of treatment): significant decrease
IC50 (CD8-IGF1R; CD8-IGF1R cell line, 1 hour treatment, inhibition near known cellular IC50, read-out: cellular phosphorylation IC50 (dose-dependent inhibition of IGF1R phosphorylation)): ~100 nM
phosphorylation of the IGF1R cytotail, AKT and ERK1/2 (CD8-IGF1R; one hour of treatment, CD8-IGF1R cells): inhibition of phosphorylation
IC50 [1]: > 10000 nM
IC50 [2]: > 10000 nM
inhibition of anchorage-independent growth in soft agar (NIH-3T3 CD8-IGF1R cells [3]): completely inhibiting; also recorded: inhibits growth
effect on cellular proliferation [4]: little effect
transformed phenotype (morphology) (NIH-3T3 CD8-IGF1R cells [5]): reversal of their transformed phenotype
Ki (IR): < 10 nM
inhibition of proliferation in vitro (SK-N-FI cells): effectively inhibit proliferation
%T/C, monotherapy compared to appropriate controls (MiaPaCa-2 flank tumors): approximately 80%
%T/C (tumor weight, treated vs. vehicle) [6]: 58%
Ki (IGF1R): < 10 nM
%T/C (tumor volume, treated vs. vehicle) (CD8 IGF1R flank tumors): 21%
IC50s against IGF1R versus IR (IGF1R and IR): roughly equipotent
decrease in Ccn d1 transcripts (NIH-3T3 CD8-IGF1R cells [7]): 4.8 fold
up-regulation of Cdkn1a (p21) (NIH-3T3 CD8-IGF1R cells [7]): 1.5 fold
IC50 (NIH-3T3 CD8-IGF1R cells [8]; Mus musculus, NIH3T3, CD8-IGF1R cells, 72 hours, read-out: IC50, inhibition of cellular proliferation): < 300 nM

Cc1nc(Nc2ncc(C(=O)Nc3c(C)cccc3Cl)s2)cc(N2CCN(CCO)CC2)n1 [Dasatinib, reference compound]
effect on cellular proliferation [4]: potent inhibitor
effect on cellular proliferation (NIH-3T3 CD8-IGF1R cells [8]; CD8-IGF1R line, concentrations up to 10 μM): no effect

C#Cc1cccc(Nc2ncnc3cc(OCCOC)c(OCCOC)cc23)c1 [erlotinib, reference compound]
tumor response in words (HCC-827 flank tumors; mouse, in vivo): partial responses
